Columns and labels:
Type in all cases: physicochemical
[1] = Stability of Compound 5 in DMSO solution (non-reductive environment), HPLC-MS; conditions: room temperature, 24 hours, no reducing agent
Description: (§1) A DMSO solution of Compound 5 was incubated at room temperature for 24 hours. […] The Compound was then incubated at room temperature with one equivalent of the reducing agent tris (2-carboxyethyl) phosphine (TCEP). […] Intact Compound 5; (ii). a product corresponding to Compound 5 with two reduced thiol groups (Product 1); (iii). a product corresponding to cleaved Fragment A; and (iv). a product corresponding to cleaved Fragment B.
(§2) However, in reductive conditions, conversion of the disulfide into free thiol groups takes place. Importantly, this step is evidently followed by an intramolecular reaction, with molecular cleavage at the carbamate moiety, conceivably related to nucleophilic attack on the respective carbonyl by a thiol or a thiolate group, conveniently located at the sixth atom position. Therefore, the Compound manifests selective reduction-dependent cleavage. The site of the nucleophilic attack is described in the following Scheme 4: […]

[2] = Reduction-induced cleavage with one equivalent of TCEP, HPLC-MS; conditions: room temperature, 18 hours
Description: as §1, §2

[3] = Reduction-induced cleavage with excess dithiothreitol (15 equiv), HPLC/MS; conditions: 15 equiv DTT, DMSO/phosphate buffer pH 7, 37° C., argon
Description: Dithiothreitol (DTT) is a reducing agent; once oxidized, it forms a stable six-membered ring, with an internal disulfide bond. Disulfide compound A was treated with excess dithiothreitol (15 equiv, aq. 0.5M, pH adjusted to 7 with phosphate buffer solution) in DMSO and phosphate buffer solution (pH 7) at 37° C. under an argon atmosphere. Two sets of samples were analyzed by HPLC/MS: at 6 and at 24 hours.
As expected, the peak at 24 hours was of larger amplitude (70% vs. 30%).

[4] = Reduction-induced cleavage with 100 equivalents of DTT, HPLC/MS; conditions: 100 equiv DTT, DMSO/aqueous buffer pH 7.0, 37° C., argon
Description: The experiment comprised incubation of Compound B with 100 equivalents of the reducing agent DTT (0.1 mL of 2 M solution), 1.0 mL DMSO in aqueous buffer (pH=7.0), at 37° C. under argon atmosphere. Three sets of samples were analyzed by HPLC/MS: at 1 hour, 6 hours, and at 24 hours. […] This structure was thereafter maintained throughout the experiment.
Importantly however, HPLC/MS also indicated the formation of Compound B3, indicating cleavage of Compound B2, at the carbamate bond, with release of the phenolic moiety, Compound B3:
There was evidence for such cleavage, with release of Compound B3, already at one hour of incubation, where 30% cleavage was detected. This increased to 90% of cleaved product at 6 hours, and full cleavage by 24 hours.

C[C@]12CC[C@@H]3c4ccc(OC(=O)N(CCCCCCO)C5CCSSC5)cc4CC[C@H]3[C@@H]1CC[C@@H]2OCCCOC(C(F)(F)F)(C(F)(F)F)C(F)(F)F (stereo partly drawn) [Compound 5]
stability of the DMSO solution by HPLC-MS [1]: stable and intact | HPLC-MS products after incubation with reducing agent (intact compound, reduced Product 1, cleaved Fragment A, cleaved Fragment B) [2]: four distinct peaks

CCCCCCN(C(=O)Oc1ccccc1)[C@H]1CCSSC1 [Compound A]
cleavage (peak amplitude of cleavage product A3) ([3]; 6 hours): 30% | reduction of the disulphide bond (A2) ([3]; 6 hours): clearly visible | cleavage (peak amplitude of cleavage product A3) ([3]; 24 hours): 70%

C[C@]12CC[C@@H]3c4cc(F)c(OC(=O)N(CCCO)C5CCSSC5)cc4CC[C@H]3[C@@H]1CC[C@@H]2OCCCOC(C(F)(F)F)(C(F)(F)F)C(F)(F)F (stereo partly drawn) [Compound B]
cleavage with release of Compound B3 ([4]; 6 hours): 90% | cleavage with release of Compound B3 ([4]; 24 hours): full cleavage | cleavage with release of Compound B3 ([4]; one hour): 30% | reduction of the disulphide bond (conversion of Compound B to Compound B2) ([4]; one hour): full conversion

— patent publication US11286246B2, “Pro-drugs and related methods” (Aposense LTD., priority 2015, dated 2022)
